From patent US20250213735A1, “NEUROPEPTIDE Y1 RECEPTOR (NPY1R) TARGETED THERAPEUTICS AND USES THEREOF” (Radionetics Oncology, Inc., priority 2023, published 2025)
pKi: −log10 of the molar value. Numbered stars: 1 amine (or outer) side, 2 acyl side, 3 side chain; on linkers, the order of the positions; unused ones are H or OH. Square brackets hold non-standard residues; d marks the D form. Peptide text beside a SMILES is read from it. * marks the point of attachment. dArg(Nω-CONH(CH2)2NHCOEt) = CCC(=O)NCCNC(=O)/N=C(/N)NCCC[C@@H](N)C(=O)O; DOTA = O=C(O)CN1CCN(CC(=O)O)CCN(CC(=O)*)CCN(CC(=O)O)CC1; X1 = O=C([C@H](c1ccc(OCCCN[*:1])cc1)N1Cc2ccccc2C1)[*:2]; NH(2,6-F2-4-OH-benzyl) = Oc1cc(F)c(CN*)c(F)c1; βAla = NCCC(=O)O

molecular target: hNPY1R (Homo sapiens (Human), UniProt P25929); assay: NPY1R binding assay (SK-N-MC membrane, [125I]-Peptide YY competition); details: crude SK-N-MC membranes endogenously expressing NPY1R; [125I]-Peptide YY (human) 0.05 nM; 120 min at room temperature; read-out: hNPY1R binding Ki;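 further: bound radioligand separated by filtration over GF/C filter plates and counted, Ki obtained by non-linear regression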
Sequence (P25929 whole entry): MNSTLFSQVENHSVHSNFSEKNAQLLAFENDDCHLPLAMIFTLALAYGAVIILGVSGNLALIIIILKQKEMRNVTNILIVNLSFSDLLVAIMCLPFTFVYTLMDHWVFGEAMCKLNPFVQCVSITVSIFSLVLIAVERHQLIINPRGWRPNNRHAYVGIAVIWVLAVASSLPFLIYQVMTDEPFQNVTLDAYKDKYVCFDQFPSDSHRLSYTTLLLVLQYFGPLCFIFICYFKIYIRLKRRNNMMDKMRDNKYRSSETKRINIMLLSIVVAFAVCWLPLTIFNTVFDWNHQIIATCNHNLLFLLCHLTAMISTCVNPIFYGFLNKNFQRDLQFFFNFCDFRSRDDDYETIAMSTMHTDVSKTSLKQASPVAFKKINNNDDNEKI
Description: Crude membrane fractions are prepared from SK-N-MC cells endogenously expressing the NPY1R receptor. The cells are grown to 85-100% confluence on standard tissue culture dishes in Eagle's Minimum Essential Medium supplemented with 10% dialyzed FBS. To prepare membranes, cells are scraped and collected in 1× Dulbecco's phosphate buffered saline and then pelleted at 1000 RPM's. The cell pellet is reconstituted in membrane preparation buffer (20 mM HEPES, 6 mM MgCl2 and 1 mM EGTA, protease inhibitor tablets, pH 7.4) and placed in a cell disruption vessel at 1000 PSI for 30 minutes on ice. The pressurized contents are then released and spun down at 1000 RPMs and the supernatant is collected and further centrifuged at 15,000 RPMs to pellet the membranes. The membrane pellet is resuspended in membrane preparation buffer, snap frozen and stored at −80° C. for later use.
Assay contents are then filtered through unifilter GF/C microplates and washed with 9×400 μl of cold wash buffer (25 mM HEPES, 5 mM MgCl2, 1 mM CaCl2), 500 mM NaCl, 0.1% Tween-20, pH 7.4). Assay plates are read using a Top Count NXT and Ki values for compounds are determined using a GraphPad Prism 6 non-linear regression analysis.

Question: How did the pKi turn out when CCC(=O)NCCNC(=O)/N=C(/N)NCCC[C@@H](NC(=O)[C@H](c1ccc(OCCCNC(=O)[C@@H](CO)NC(=O)CCNC(=O)CN2CCN(CC(=O)O)CCN(CC(=O)O)CCN(CC(=O)O)CC2)cc1)N1Cc2ccccc2C1)C(=O)NCc1c(F)cc(O)cc1F [compound 48, 2,2′,2″-(10-(2-((3-(((R)-1-((3-(4-((1S,4R,Z)-9-amino-4-((2,6-difluoro-4-hydroxybenzyl)carbamoyl)-1-(isoindolin-2-yl)-2,11,16-trioxo-3,8,10,12,15-pentaazaoctadec-9-en-1-yl)phenoxy)propyl)amino)-3-hydroxy-1-oxopropan-2-yl)amino)-3-oxopropyl)amino)-2-oxoethyl)-1,4,7,10-tetraazacyclododecane-1,4,7-triyl)triacetic acid] was run?
Answer: > 8.00

Question: With CCC(=O)NCCNC(=O)/N=C(/N)NCCC[C@@H](NC(=O)[C@H](c1ccc(OCCCNC(=O)CCC(=O)NCCNC(=O)CCC(C(=O)O)N2CCN(CC(=O)O)CCN(CC(=O)O)CCN(CC(=O)O)CC2)cc1)N1Cc2ccccc2C1)C(=O)NCc1c(F)cc(O)cc1F (stereo partly drawn) [compound 49, 2,2′,2″-(10-(4-((2-(4-((3-(4-((1S,4R,Z)-9-amino-4-((2,6-difluoro-4-hydroxybenzyl)carbamoyl)-1-(isoindolin-2-yl)-2,11,16-trioxo-3,8,10,12,15-pentaazaoctadec-9-en-1-yl)phenoxy)propyl)amino)-4-oxobutanamido)ethyl)amino)-1-carboxy-4-oxobutyl)-1,4,7,10-tetraazacyclododecane-1,4,7-triyl)triacetic acid] as the compound, how does the pKi read?
Answer: > 8.00

Question: With CCC(=O)NCCNC(=O)/N=C(/N)NCCC[C@@H](NC(=O)[C@H](c1ccc(OCCCNC(=O)[C@@H](CC(N)=O)NC(=O)CCNC(=O)CN2CCN(CC(=O)O)CCN(CC(=O)O)CCN(CC(=O)O)CC2)cc1)N1Cc2ccccc2C1)C(=O)NCc1c(F)cc(O)cc1F [compound 50, 2,2′,2″-(10-(2-((3-(((R)-4-amino-1-((3-(4-((1S,4R,Z)-9-amino-4-((2,6-difluoro-4-hydroxybenzyl)carbamoyl)-1-(isoindolin-2-yl)-2,11,16-trioxo-3,8,10,12,15-pentaazaoctadec-9-en-1-yl)phenoxy)propyl)amino)-1,4-dioxobutan-2-yl)amino)-3-oxopropyl)amino)-2-oxoethyl)-1,4,7,10-tetraazacyclododecane-1,4,7-triyl)triacetic acid] as the compound, how does the pKi read?
Answer: > 8.00

Question: How did the pKi turn out when CCC(=O)NCCNC(=O)/N=C(/N)NCCC[C@@H](NC(=O)[C@H](c1ccc(OCCCNC(=O)[C@@H](CC(N)=O)NC(=O)[C@@H](CO)NC(=O)CCNC(=O)CN2CCN(CC(=O)O)CCN(CC(=O)O)CCN(CC(=O)O)CC2)cc1)N1Cc2ccccc2C1)C(=O)NCc1c(F)cc(O)cc1F [compound 51, 2,2′,2″-(10-((8R,11R)-11-(2-amino-2-oxoethyl)-16-(4-((1S,4R,Z)-9-amino-4-((2,6-difluoro-4-hydroxybenzyl)carbamoyl)-1-(isoindolin-2-yl)-2,11,16-trioxo-3,8,10,12,15-pentaazaoctadec-9-en-1-yl)phenoxy)-8-(hydroxymethyl)-2,6,9,12-tetraoxo-3,7,10,13-tetraazahexadecyl)-1,4,7,10-tetraazacyclododecane-1,4,7-triyl)triacetic acid] was run?
Answer: > 8.00

Question: CCC(=O)NCCNC(=O)/N=C(/N)NCCC[C@@H](NC(=O)[C@H](c1ccc(OCCCNC(=O)C[C@H]2NC(=O)[C@@H](CCNC(=O)CN3CCN(CC(=O)O)CCN(CC(=O)O)CCN(CC(=O)O)CC3)NC2=O)cc1)N1Cc2ccccc2C1)C(=O)NCc1c(F)cc(O)cc1F [compound 52, 2,2′,2″-(10-(2-((2-((2R,5R)-5-(2-((3-(4-((1S,4R,Z)-9-amino-4-((2,6-difluoro-4-hydroxybenzyl)carbamoyl)-1-(isoindolin-2-yl)-2,11,16-trioxo-3,8,10,12,15-pentaazaoctadec-9-en-1-yl)phenoxy)propyl)amino)-2-oxoethyl)-3,6-dioxopiperazin-2-yl)ethyl)amino)-2-oxoethyl)-1,4,7,10-tetraazacyclododecane-1,4,7-triyl)triacetic acid] was tested. Which pKi did it give?
Answer: > 8.00

Question: CCC(=O)NCCNC(=O)/N=C(/N)NCCC[C@@H](NC(=O)[C@H](c1ccc(OCCCNC(=O)C[C@H](O)C[C@H](O)CCNC(=O)CCC(=O)NCCNC(=O)CN2CCN(CC(=O)O)CCN(CC(=O)O)CCN(CC(=O)O)CC2)cc1)N1Cc2ccccc2C1)C(=O)NCc1c(F)cc(O)cc1F [compound 53, 2,2′,2″-(10-((14R,16R)-22-(4-((1S,4R,Z)-9-amino-4-((2,6-difluoro-4-hydroxybenzyl)carbamoyl)-1-(isoindolin-2-yl)-2,11,16-trioxo-3,8,10,12,15-pentaazaoctadec-9-en-1-yl)phenoxy)-14,16-dihydroxy-2,7,10,18-tetraoxo-3,6,11,19-tetraazadocosyl)-1,4,7,10-tetraazacyclododecane-1,4,7-triyl)triacetic acid] was tested. Which pKi did it give?
Answer: > 8.00

Question: With CCC(=O)NCCNC(=O)/N=C(/N)NCCC[C@@H](NC(=O)[C@H](c1ccc(OCCCNC(=O)[C@@H](CO)NC(=O)[C@@H](CO)NC(=O)[C@@H](CO)NC(=O)CCNC(=O)CN2CCN(CC(=O)O)CCN(CC(=O)O)CCN(CC(=O)O)CC2)cc1)N1Cc2ccccc2C1)C(=O)NCc1c(F)cc(O)cc1F [compound 54, 2,2′,2″-(10-((8R,11R,14R)-19-(4-((1S,4R,Z)-9-amino-4-((2,6-difluoro-4-hydroxybenzyl)carbamoyl)-1-(isoindolin-2-yl)-2,11,16-trioxo-3,8,10,12,15-pentaazaoctadec-9-en-1-yl)phenoxy)-8,11,14-tris(hydroxymethyl)-2,6,9,12,15-pentaoxo-3,7,10,13,16-pentaazanonadecyl)-1,4,7,10-tetraazacyclododecane-1,4,7-triyl)triacetic acid] ({DOTA-βAla}-[dS][dS][dS][X1][dArg(Nω-CONH(CH2)2NHCOEt)]-{NH(2,6-F2-4-OH-benzyl)}) as the compound, how does the pKi read?
Answer: > 8.00

Question: With CCC(=O)NCCNC(=O)/N=C(/N)NCCC[C@@H](NC(=O)[C@H](c1ccc(OCCCNC(=O)CCN(C)CCNC(=O)CN2CCN(CC(=O)O)CCN(CC(=O)O)CCN(CC(=O)O)CC2)cc1)N1Cc2ccccc2C1)C(=O)NCc1c(F)cc(O)cc1F [compound 55, 2,2′,2″-(10-(2-((2-((3-((3-(4-((1S,4R,Z)-9-amino-4-((2,6-difluoro-4-hydroxybenzyl)carbamoyl)-1-(isoindolin-2-yl)-2,11,16-trioxo-3,8,10,12,15-pentaazaoctadec-9-en-1-yl)phenoxy)propyl)amino)-3-oxopropyl)(methyl)amino)ethyl)amino)-2-oxoethyl)-1,4,7,10-tetraazacyclododecane-1,4,7-triyl)triacetic acid] as the compound, how does the pKi read?
Answer: > 8.00

Question: With CCC(=O)NCCNC(=O)/N=C(/N)NCCC[C@@H](NC(=O)[C@H](c1ccc(OCCCN(C)CCCCCNC(=O)CN2CCN(CC(=O)O)CCN(CC(=O)O)CCN(CC(=O)O)CC2)cc1)N1Cc2ccccc2C1)C(=O)NCc1c(F)cc(O)cc1F [compound 56, 2,2′,2″-(10-(2-((5-((3-(4-((1S,4R,Z)-9-amino-4-((2,6-difluoro-4-hydroxybenzyl)carbamoyl)-1-(isoindolin-2-yl)-2,11,16-trioxo-3,8,10,12,15-pentaazaoctadec-9-en-1-yl)phenoxy)propyl)(methyl)amino)pentyl)amino)-2-oxoethyl)-1,4,7,10-tetraazacyclododecane-1,4,7-triyl)triacetic acid] as the compound, how does the pKi read?
Answer: > 8.00

Question: How did the pKi turn out when CCC(=O)NCCNC(=O)/N=C(/N)NCCC[C@@H](NC(=O)[C@H](c1ccc(OCCCCNC(=O)CCCCCNC(=O)CN2CCN(CC(=O)O)CCN(CC(=O)O)CCN(CC(=O)O)CC2)cc1)N1Cc2ccccc2C1)C(=O)NCc1ccc(O)cc1 [compound 57, 2,2′,2″-(10-(2-((6-((4-(4-((1S,4R,Z)-9-amino-4-((4-hydroxybenzyl)carbamoyl)-1-(isoindolin-2-yl)-2,11,16-trioxo-3,8,10,12,15-pentaazaoctadec-9-en-1-yl)phenoxy)butyl)amino)-6-oxohexyl)amino)-2-oxoethyl)-1,4,7,10-tetraazacyclododecane-1,4,7-triyl)triacetic acid] was run?
Answer: > 8.00

Question: How did the pKi turn out when CCC(=O)NCCNC(=O)/N=C(/N)NCCC[C@@H](NC(=O)[C@H](c1ccc(OCCNC(=O)CCCCCNC(=O)CN2CCN(CC(=O)O)CCN(CC(=O)O)CCN(CC(=O)O)CC2)cc1)N1Cc2ccccc2C1)C(=O)NCc1ccc(O)cc1 [compound 58, 2,2′,2″-(10-(2-((6-((2-(4-((1S,4R,Z)-9-amino-4-((4-hydroxybenzyl)carbamoyl)-1-(isoindolin-2-yl)-2,11,16-trioxo-3,8,10,12,15-pentaazaoctadec-9-en-1-yl)phenoxy)ethyl)amino)-6-oxohexyl)amino)-2-oxoethyl)-1,4,7,10-tetraazacyclododecane-1,4,7-triyl)triacetic acid] was run?
Answer: > 8.00

Question: How did the pKi turn out when CCC(=O)NCCNC(=O)/N=C(/N)NCCC[C@@H](NC(=O)[C@H](c1ccc(OCCCNC(=O)CN2CCN(CC(=O)O)CCN(CC(=O)O)CCN(CC(=O)O)CC2)cc1)N1Cc2ccccc2C1)C(=O)NCc1ccc(O)cc1 [compound 59, 2,2′,2″-(10-(2-((3-(4-((1S,4R,Z)-9-amino-4-((4-hydroxybenzyl)carbamoyl)-1-(isoindolin-2-yl)-2,11,16-trioxo-3,8,10,12,15-pentaazaoctadec-9-en-1-yl)phenoxy)propyl)amino)-2-oxoethyl)-1,4,7,10-tetraazacyclododecane-1,4,7-triyl)triacetic acid] was run?
Answer: > 8.00

Question: How did the pKi turn out when CCC(=O)NCCNC(=O)/N=C(/N)NCCC[C@@H](NC(=O)C(c1ccccc1)N1Cc2ccccc2C1)C(=O)NCc1ccc(O)cc1 (stereo partly drawn) [compound 60, (2R)—N-(4-hydroxybenzyl)-2-(2-(isoindolin-2-yl)-2-phenylacetamido)-5-((Z)-2-((2-propionamidoethyl)carbamoyl)guanidino)pentanamide] was run?
Answer: > 8.00

Question: How did the pKi turn out when CCC(=O)NCCNC(=O)/N=C(/N)NCCC[C@@H](NC(=O)[C@H](c1cccc(NCCCN)c1)N1Cc2ccccc2C1)C(=O)NCc1ccc(O)cc1 [compound 63, (R)-2-((S)-2-(3-((3-aminopropyl)amino)phenyl)-2-(isoindolin-2-yl)acetamido)-N-(4-hydroxybenzyl)-5-((Z)-2-((2-propionamidoethyl)carbamoyl)guanidino)pentanamide] was run?
Answer: > 8.00
